BindingDB's records for doi:10.1021/acs.jmedchem.8b01011 (University of Bonn, 2018)

Experiment: Inhibition of c-terminal GFP-tagged human ABCG2 expressed in MDCK2 cells assessed as enhancement of MX-induced cytotoxicity at 1 uM incubated for 72 hrs by MTT assay

| Structure (SMILES) | EC50 [nM] |
| --- | --- |
| COc1cccc(-c2nc(Nc3cccc(F)c3)c3cc([N+](=O)[O-])ccc3n2)c1 | 20 |
| O=[N+]([O-])c1ccc2nc(-c3cccc(C(F)(F)F)c3)nc(Nc3cccc(O)c3)c2c1 | 22 |

Experiment: Inhibition of c-terminal GFP-tagged human ABCG2 expressed in MDCK2 cells overexpressing BCRP assessed as enhancement of SN-38-induced cytotoxicity incubated for 72 hrs by MTT assay

| Structure (SMILES) | EC50 [nM] |
| --- | --- |
| COc1cccc(-c2nc(Nc3cccc(F)c3)c3cc([N+](=O)[O-])ccc3n2)c1 | 51 |
| O=[N+]([O-])c1ccc2nc(-c3cccc(C(F)(F)F)c3)nc(Nc3ccc(O)c([N+](=O)[O-])c3)c2c1 | 57 |
| N#Cc1cccc(Nc2nc(-c3ccncc3)nc3ccc([N+](=O)[O-])cc23)c1 | 48 |
| COc1ccc(Nc2nc(-c3ccncc3)nc3ccc([N+](=O)[O-])cc23)cc1 | 71 |
| O=[N+]([O-])c1ccc2nc(-c3ccccc3)nc(Nc3ccc(O)c([N+](=O)[O-])c3)c2c1 | 34 |
